Eight compounds from ChEMBL document CHEMBL1201862, “PubChem BioAssay data set” (2004) can be followed below.

Some test systems named below: 786-0; A498; A549; EKVX; HL-60; HOP-92; Hs-578T; KM12; M14; MDA-MB-435; NCI-H522; RXF 393; SF-539; SK-MEL-28; SK-OV-3; SNB-75; SW-620; TK-10; UO-31.
Experiment in all cases: NCI-60 cell line screen, 48 h

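Values below derive from 48-hour exposures of cells grown in 96-well plates, with endpoints linearly interpolated between the two concentrations bracketing the appropriate inhibition level. Here, GI50 denotes the concentration required for 50% inhibition of growth.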 Calls of active or inactive are those of the source. Cut-off read from the data, not from the text of the source: active = GI50 up to about 1.1 µM and inactive = higher. Bounds are passed on as bounds.

Regarding `Oc1c2ccccc2c2c3c(cccc13)N=N2` [SP-600125], the GI50 is 27.1 µM (inactive) with 786-0; 7.03 µM (inactive) in the assay on A498; 14.9 µM (inactive) in the assay on A549; 20 µM (inactive) with EKVX; 42.1 µM (inactive) with HL-60; 37.6 µM (inactive) in the assay on HOP-92. The GI50 is 55.1 µM (inactive) in the assay on Hs-578T; 2.62 µM (inactive) in the assay with KM12; > 100 µM (inactive) in the assay with M14; 12.8 µM (inactive) in the assay on MDA-MB-435; 12.2 µM (inactive) in the assay with NCI-H522; 20.7 µM (inactive) with RXF 393. For the same compound, the GI50 with SF-539 is 32.2 µM (inactive); with SK-MEL-28 it was 37.6 µM (inactive); in the assay with SK-OV-3 it was 21 µM (inactive); with SNB-75, 16.9 µM (inactive); with SW-620, 10.9 µM (inactive); in the assay on TK-10 it was 5.93 µM (inactive). Also, the GI50 in the assay on UO-31 was 10.5 µM (inactive).

For the compound `CC(C)(C)c1ccc(OCC(=O)O)c(Cl)c1`, the GI50 with 786-0, with A498, with A549, in the assay on EKVX, in the assay on HL-60 and in the assay with HOP-92 was > 100 µM (inactive) in each case. The GI50 with Hs-578T, in the assay on KM12, in the assay on M14, in the assay on MDA-MB-435, in the assay with NCI-H522 and in the assay with RXF 393 was > 100 µM (inactive) throughout. Also, the GI50 in the assay on SF-539, with SK-MEL-28, with SK-OV-3, in the assay with SNB-75, in the assay with SW-620 and in the assay on TK-10 was > 100 µM (inactive) each time. The GI50 in the assay on UO-31 is > 100 µM (inactive).

In the case of `CC(C)(C)c1cc(/C=C2/NC(=O)NC2=O)cc(C(C)(C)C)c1O`, the GI50 in the assay on 786-0 was 15.6 µM (inactive); in the assay on A498 it was 14 µM (inactive); in the assay on EKVX it was 10.9 µM (inactive); with HL-60, 10.8 µM (inactive); in the assay on HOP-92 it was 14.2 µM (inactive); in the assay on Hs-578T, 15.2 µM (inactive). The GI50 is 13.2 µM (inactive) in the assay with KM12; 17.3 µM (inactive) in the assay with MDA-MB-435; 12 µM (inactive) with NCI-H522; 6.25 µM (inactive) in the assay with RXF 393; 17 µM (inactive) with SF-539; 17.5 µM (inactive) with SK-MEL-28. The GI50 was 16.8 µM (inactive) in the assay with SK-OV-3, 12.3 µM (inactive) in the assay on SNB-75, 18.3 µM (inactive) in the assay with SW-620 and 16.4 µM (inactive) in the assay on TK-10.

`CC(C)(C)OC(=O)N1CCC2(CC1)C(=O)NCN2c1ccccc1`: the GI50 with 786-0 is > 100 µM (inactive); in the assay with A498, > 100 µM (inactive); in the assay on A549 it was > 100 µM (inactive); with EKVX it was > 100 µM (inactive); in the assay on HL-60 it was 92.7 µM (inactive); with HOP-92, > 100 µM (inactive). Also, the GI50 with Hs-578T, with KM12, in the assay with M14, with MDA-MB-435, in the assay on NCI-H522 and with RXF 393 was > 100 µM (inactive) throughout. The GI50 in the assay with SF-539, in the assay with SK-MEL-28, in the assay on SK-OV-3, in the assay with SNB-75, in the assay with SW-620 and with TK-10 was > 100 µM (inactive) in each case. In addition, the GI50 in the assay with UO-31 is > 100 µM (inactive).

For the compound `N#Cc1c(-c2ccc(Cl)cc2)c(C#N)c(=O)n(NS(=O)(=O)c2ccccc2)c1O`, the GI50 in the assay on 786-0 is 29.8 µM (inactive); in the assay on A498 it was 24.9 µM (inactive); in the assay with A549 it was 28.8 µM (inactive); in the assay with EKVX, 28.1 µM (inactive); in the assay with HL-60 it was 16.1 µM (inactive); in the assay with HOP-92, 19.3 µM (inactive). The GI50 in the assay on Hs-578T was 19.7 µM (inactive); in the assay on KM12, 23.7 µM (inactive); with M14 it was 29.6 µM (inactive); in the assay on MDA-MB-435, 34.3 µM (inactive); with NCI-H522, 27.9 µM (inactive); in the assay on RXF 393, 21.8 µM (inactive). Further, the GI50 with SF-539 is 20.7 µM (inactive); in the assay on SK-MEL-28, 26.4 µM (inactive); in the assay with SK-OV-3 it was 21.5 µM (inactive); in the assay on SNB-75 it was 34 µM (inactive); in the assay with SW-620, 30.6 µM (inactive); in the assay on TK-10, 39.1 µM (inactive).

On to `O=C1/C(=C/c2ccc([N+](=O)[O-])cc2)Sc2scc(-c3cccc([N+](=O)[O-])c3)[n+]21`, for which the GI50 in the assay with 786-0 is 1.79 µM (inactive); with A498, 3.13 µM (inactive); in the assay with A549, 22.2 µM (inactive); in the assay with EKVX it was 6.7 µM (inactive); in the assay with HL-60, 0.331 µM (active); in the assay on HOP-92, 3.66 µM (inactive). In addition, the GI50 in the assay on Hs-578T is 8.81 µM (inactive); in the assay with KM12, 10.8 µM (inactive); with M14 it was 3.78 µM (inactive); with MDA-MB-435 it was 5.46 µM (inactive); in the assay on NCI-H522, 0.973 µM (active); in the assay on RXF 393 it was 2.35 µM (inactive). The GI50 in the assay with SF-539 was 2.37 µM (inactive); in the assay on SK-OV-3, 15.9 µM (inactive); with SNB-75, 10.6 µM (inactive); with SW-620 it was 1.69 µM (inactive); in the assay on TK-10 it was 5.18 µM (inactive); in the assay with UO-31, 8.51 µM (inactive).

For the compound `Cc1ccc2ccc(=O)oc2c1`, the GI50 in the assay on 786-0, in the assay with A498, in the assay on A549, with EKVX, in the assay on HL-60 and with HOP-92 was > 100 µM (inactive) in each case. Moreover, the GI50 in the assay with Hs-578T, with KM12, in the assay on M14, in the assay on MDA-MB-435, in the assay with NCI-H522 and in the assay on RXF 393 was > 100 µM (inactive) each time. Besides, the GI50 with SF-539, in the assay on SK-MEL-28, in the assay on SNB-75, with SW-620, in the assay on TK-10 and in the assay on UO-31 was > 100 µM (inactive) each time.

Consider `COc1cc(S(=O)(=O)Nc2ccc(-c3csc(N4C(=O)C(Cl)C4c4ccccc4O)n3)cc2)ccc1Cl` (stereo not given), for which the GI50 with 786-0 was 35.1 µM (inactive); in the assay on A498, 0.454 µM (active); with A549, > 100 µM (inactive); with EKVX, 15.4 µM (inactive); in the assay on HL-60 it was 21.8 µM (inactive); in the assay with HOP-92, 28 µM (inactive). Also, the GI50 was 0.748 µM (active) with Hs-578T; 33 µM (inactive) in the assay with KM12; 50.9 µM (inactive) in the assay with M14; 31.4 µM (inactive) in the assay on MDA-MB-435; 1.51 µM (inactive) in the assay with NCI-H522; 19.9 µM (inactive) in the assay on RXF 393. Besides, the GI50 with SF-539 was 30.5 µM (inactive); in the assay with SK-MEL-28 it was 38.1 µM (inactive); in the assay with SK-OV-3 it was > 100 µM (inactive); in the assay on SNB-75 it was 62.7 µM (inactive); with SW-620, 32.3 µM (inactive); in the assay with UO-31, 31.9 µM (inactive).
